Assay results reported in patent US20200031785A1, “METHODS FOR TREATING CHRONIC PAIN AND OPIOID DEPENDENCE USING ADENYLYL CYCLASE INHIBITORS” (Purdue Research Foundation, priority 2017, published 2020).

Assays:
Assay type in all cases: cell-based
hAC1 = molecular target: T1, hAC1 (Homo sapiens, UniProt Q08828); test: Cyclic AMP accumulation in HEK cells stably expressing AC1, stimulated with A23187 (HTRF); conditions: HEK-AC1 cells; for inhibition at 30 µM: HEK293; for IC50: read-out: HEK-AC1 IC50
T1 construct: expressed in transfected cells
T1 sequence (Q08828 whole entry): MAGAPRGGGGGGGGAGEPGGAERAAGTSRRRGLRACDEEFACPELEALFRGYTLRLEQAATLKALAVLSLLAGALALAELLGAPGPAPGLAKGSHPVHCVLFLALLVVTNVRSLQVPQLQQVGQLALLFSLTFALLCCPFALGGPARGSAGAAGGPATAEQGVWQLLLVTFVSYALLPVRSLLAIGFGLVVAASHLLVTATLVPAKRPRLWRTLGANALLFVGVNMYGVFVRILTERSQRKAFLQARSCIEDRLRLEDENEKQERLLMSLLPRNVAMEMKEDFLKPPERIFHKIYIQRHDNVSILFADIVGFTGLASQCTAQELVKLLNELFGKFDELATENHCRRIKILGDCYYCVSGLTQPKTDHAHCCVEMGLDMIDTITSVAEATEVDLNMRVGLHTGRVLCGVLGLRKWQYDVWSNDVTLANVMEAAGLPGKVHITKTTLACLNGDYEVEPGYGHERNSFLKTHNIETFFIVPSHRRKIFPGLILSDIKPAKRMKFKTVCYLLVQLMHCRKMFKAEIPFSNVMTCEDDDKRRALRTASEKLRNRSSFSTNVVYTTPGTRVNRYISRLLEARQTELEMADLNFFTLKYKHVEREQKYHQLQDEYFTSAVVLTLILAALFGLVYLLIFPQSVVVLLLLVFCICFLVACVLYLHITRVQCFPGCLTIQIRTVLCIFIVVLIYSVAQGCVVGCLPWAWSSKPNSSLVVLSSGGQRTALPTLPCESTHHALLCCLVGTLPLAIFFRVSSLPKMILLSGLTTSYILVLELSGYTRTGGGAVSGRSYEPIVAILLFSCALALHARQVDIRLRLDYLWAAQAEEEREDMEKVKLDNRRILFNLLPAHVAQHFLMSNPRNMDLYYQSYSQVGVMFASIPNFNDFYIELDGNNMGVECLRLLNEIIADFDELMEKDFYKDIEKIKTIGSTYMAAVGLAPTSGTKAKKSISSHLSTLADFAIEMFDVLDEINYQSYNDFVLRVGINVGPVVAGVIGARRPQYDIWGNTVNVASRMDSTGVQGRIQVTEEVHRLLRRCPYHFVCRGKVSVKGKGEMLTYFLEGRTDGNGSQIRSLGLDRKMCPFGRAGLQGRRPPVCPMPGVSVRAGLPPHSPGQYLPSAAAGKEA
Experimental: The development and mechanistic characterization of AC1-selective small molecule inhibitors is believed to provide novel non-opioid weapons in the war on chronic pain. We identified our initial hits via screening 10,000 selected compounds from the Life Chemicals collection. The screen was carried out using HEK cells stably expressing AC1 (HEK-AC1) and cyclic AMP accumulation was stimulated using the Ca^2+ ionophore, A23187 to selectively activate AC1. Compounds with potential chemical liabilities and PAINs were removed from further evaluation (Baell and Holloway, J. Med. Chem. 2010, 53, 2719-2740).
(§1) Fresh powders of several robust inhibitors (>90% inhibition) were evaluated in multiple confirmation assays assessing the dose response relationship for inhibiting AC1 and AC8 activity. Confirmation assays used A23817 to selectively stimulate recombinant AC1 or AC8 in the HEK cell background (Cumbay and Watts (2001), J. Pharmacol Exp Ther 297:1201-1399). This approach takes advantage of one unique regulatory property of AC1 for the development of selective inhibitors. Both AC1 and AC8 are robustly activated by Ca^2+/CaM under a variety of conditions, whereas the effects of Ca^2+/CaM on AC3 are modest and conditional requiring activation by G proteins. Previous studies have identified unique Ca^2+/CaM binding domains as one possible site of interaction to achieve AC1 (vs. AC8) selectivity (Masada et al., 2012, Biochemistry 51:7917-7929).
(§2) The primary technology we employed to measure cAMP accumulation was a homogenous time-resolved fluorescence (HTRF) assay, the same technology utilized in the primary screen. […] This could be due to either 1) the chemical scaffolds are exquisitely selective toward the AC family of enzymes or 2) the library has not been screened against a sufficient number of targets. The answer is likely a combination of the two; nonetheless, the lack of biological data to date bodes well for these series and any potential off-target promiscuity.
(§3) Human embryonic kidney (HEK) cells stably expressing AC1, AC8, or AC1 with the MOR were cultured in Dulbecco's Modified Eagle Medium (Life Technologies, Grand Island, N.Y.) supplemented with 5% bovine calf serum (Hyclone, Logan, Utah), 5% fetal clone I (Hyclone), Antibiotic-Antimycotic (Life Technologies), and G418 (Invivogen, San Diego, Calif.) (HEK-AC1), or hygromycin B (Fisher Scientific, Pittsburgh, Pa.) (HEK-AC8), or G418 and puromycin (Sigma-Aldrich) (HEK-AC1/MOR). Chinese hamster ovary (CHO) cells expressing the MOR (CHO-MOR) in the PathHunter® β-Arrestin GPCR assay platform were purchased from DiscoveRx (Freemont, Calif.). Cells were grown in Ham's F12 media supplemented with 1 mM L-glutamine (Thermo Scientific, West Palm Beach, Fla.), 10% fetal bovine serum (Hyclone), 50 U/ml penicillin, 50 μg/ml streptomycin (Life Technologies), G418 and hygromycin B. Cells were grown and frozen as previously described (J. M. Conley, et al., J Vis Exp, e51218 (2014)).
(§4) Cyclic AMP accumulation was measured as previously described (Brust, et al., J. Pharmacol. Exp. Ther. 352, 480-493(2015)). Briefly, cryopreserved cells were thawed, resuspended in optiMEM (Life Technologies), and plated in white, flat bottom, low-volume, tissue culture-treated 384 well plates (PerkinElmer, Shelton, Conn.). Plates with cells were incubated in a 37° C. humidified incubator for 1 h. Inhibitors were added and plates were incubated at room temperature for 30 min followed by the addition of AC stimulants in the presence of 500 μM IBMX. Cells were incubated at room temperature for 1 h and cAMP accumulation was measured using Cisbio's cAMP kit (Cisbio Bioassays, Bedford, Mass.) according to the manufacturer's instructions.

hAC8 = molecular target: T2, hAC8 (Homo sapiens, UniProt P40145); test: Cyclic AMP accumulation in HEK cells stably expressing AC8, stimulated with A23187 (HTRF); conditions: HEK-AC8 cells; for inhibition at 30 µM: HEK293; for IC50: read-out: HEK-AC8 IC50
T2 construct: expressed in transfected cells
T2 sequence (P40145 whole entry): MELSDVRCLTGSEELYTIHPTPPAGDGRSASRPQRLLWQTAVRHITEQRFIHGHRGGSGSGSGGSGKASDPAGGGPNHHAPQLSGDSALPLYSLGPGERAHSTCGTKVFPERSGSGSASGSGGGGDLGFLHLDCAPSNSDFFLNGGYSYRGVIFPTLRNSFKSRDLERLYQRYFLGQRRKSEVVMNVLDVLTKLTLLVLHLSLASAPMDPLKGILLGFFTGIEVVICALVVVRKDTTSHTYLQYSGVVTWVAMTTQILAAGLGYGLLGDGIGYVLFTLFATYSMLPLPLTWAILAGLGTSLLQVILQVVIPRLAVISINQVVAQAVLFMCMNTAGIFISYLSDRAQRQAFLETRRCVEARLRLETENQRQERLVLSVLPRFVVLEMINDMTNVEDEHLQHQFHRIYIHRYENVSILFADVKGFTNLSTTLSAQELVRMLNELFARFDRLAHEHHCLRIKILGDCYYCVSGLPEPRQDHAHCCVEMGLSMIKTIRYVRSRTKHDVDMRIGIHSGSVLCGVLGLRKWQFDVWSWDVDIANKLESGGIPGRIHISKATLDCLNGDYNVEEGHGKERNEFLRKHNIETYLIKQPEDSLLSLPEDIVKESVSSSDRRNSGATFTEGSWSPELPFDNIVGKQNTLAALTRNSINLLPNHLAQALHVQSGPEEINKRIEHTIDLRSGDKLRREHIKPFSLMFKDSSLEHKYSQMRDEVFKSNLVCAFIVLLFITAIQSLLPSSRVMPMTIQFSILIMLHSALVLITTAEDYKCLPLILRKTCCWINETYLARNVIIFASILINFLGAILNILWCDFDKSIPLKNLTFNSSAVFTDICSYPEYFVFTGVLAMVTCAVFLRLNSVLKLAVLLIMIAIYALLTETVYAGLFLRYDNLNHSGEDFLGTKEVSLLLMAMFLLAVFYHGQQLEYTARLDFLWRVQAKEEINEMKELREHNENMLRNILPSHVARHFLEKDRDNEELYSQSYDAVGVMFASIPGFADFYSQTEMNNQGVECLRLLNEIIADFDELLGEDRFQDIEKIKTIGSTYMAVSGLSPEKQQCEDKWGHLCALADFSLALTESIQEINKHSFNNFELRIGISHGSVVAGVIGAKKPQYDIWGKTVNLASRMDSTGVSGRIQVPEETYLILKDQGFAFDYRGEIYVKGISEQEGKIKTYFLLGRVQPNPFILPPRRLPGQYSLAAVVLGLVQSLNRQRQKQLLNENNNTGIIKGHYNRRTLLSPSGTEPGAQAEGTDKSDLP
Experimental: as §1, §2, §3, §4

hAC2 = molecular target: T3, hAC2 (Homo sapiens, UniProt Q08462); test: Cyclic AMP accumulation in stable HEK-AC2 cells, stimulated with 100 nM PMA; conditions: HEK-AC2 cells, 10 μM; (−) = negative inhibition (potentiated response)
T3 construct: expressed in transfected cells
T3 sequence (Q08462 whole entry): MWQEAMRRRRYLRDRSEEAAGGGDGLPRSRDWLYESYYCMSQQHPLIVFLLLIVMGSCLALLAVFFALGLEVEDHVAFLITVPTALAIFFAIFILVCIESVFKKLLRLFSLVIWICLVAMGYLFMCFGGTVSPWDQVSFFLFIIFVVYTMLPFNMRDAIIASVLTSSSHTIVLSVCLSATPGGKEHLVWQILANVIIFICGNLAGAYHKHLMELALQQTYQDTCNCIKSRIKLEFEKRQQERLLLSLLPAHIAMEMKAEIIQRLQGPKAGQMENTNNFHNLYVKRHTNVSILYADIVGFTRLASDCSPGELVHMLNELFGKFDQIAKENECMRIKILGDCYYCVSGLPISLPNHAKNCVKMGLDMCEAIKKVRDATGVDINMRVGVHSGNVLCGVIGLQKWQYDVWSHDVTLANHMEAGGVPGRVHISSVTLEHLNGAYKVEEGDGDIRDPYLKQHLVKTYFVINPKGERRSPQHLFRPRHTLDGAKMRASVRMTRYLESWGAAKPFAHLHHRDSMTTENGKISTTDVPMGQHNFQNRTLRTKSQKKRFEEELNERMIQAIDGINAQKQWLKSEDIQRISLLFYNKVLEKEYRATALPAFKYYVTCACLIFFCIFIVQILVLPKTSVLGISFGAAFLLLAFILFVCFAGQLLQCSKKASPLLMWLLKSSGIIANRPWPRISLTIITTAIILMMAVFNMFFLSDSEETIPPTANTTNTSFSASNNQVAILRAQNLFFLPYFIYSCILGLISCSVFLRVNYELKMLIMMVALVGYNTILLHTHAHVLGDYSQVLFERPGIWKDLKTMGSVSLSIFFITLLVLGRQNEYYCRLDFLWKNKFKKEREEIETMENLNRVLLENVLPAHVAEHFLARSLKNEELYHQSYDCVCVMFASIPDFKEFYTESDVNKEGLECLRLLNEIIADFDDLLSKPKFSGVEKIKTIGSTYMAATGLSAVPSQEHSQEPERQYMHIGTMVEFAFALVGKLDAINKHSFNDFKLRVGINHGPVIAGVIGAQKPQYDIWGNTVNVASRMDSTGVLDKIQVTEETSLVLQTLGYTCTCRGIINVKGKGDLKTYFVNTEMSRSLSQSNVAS
Experimental: as §4

Structure (SMILES) | inhibition at 30 µM (hAC1) [%] | IC50 (hAC1) [µM] | inhibition at 30 µM (hAC8) [%] | IC50 (hAC8) [µM] | inhibition at 10 µM (hAC2) [%]
O=C(Nc1nnc(-c2cccs2)o1)c1ccc(Br)cc1 [AC10009, 4-Bromo-N-(5-(thiophen-2-yl)-1,3,4-oxadiazol-2-yl)benzamide] | 81 ± 1 | 7.7 ± 1 | 41 ± 9 | 55 ± 20 | 
CCc1ccc(C(=O)Nc2nnc(-c3ccc(F)cc3)o2)cc1 [AC10044, 4-ethyl-N-(5-(4-fluorophenyl)-1,3,4-oxadiazol-2-yl)benzamide] | 88 ± 4 | 8.2 ± 2 | 32 ± 12 | 51 ± 7 | 
Cc1ccc(C(=O)Nc2nnc(-c3ccc4c(c3)CCCC4)o2)cc1C(F)(F)F [AC10073, 4-methyl-N-(5-(5,6,7,8-tetrahydronaphthalen-2-yl)-1,3,4-oxadiazol-2-yl)-3-(trifluoromethyl)benzamide] | 64 ± 8 | 26 ± 11 | 65 ± 12 | 13 ± 2 | 
O=C(Nc1nnc(-c2ccc(F)cc2)o1)c1ccccc1 [AC10004, N-(5-(4-fluorophenyl)-1,3,4-oxadiazol-2-yl)benzamide] | 65 ± 8 | 29 ± 10 | 8 ± 2 |  | 
O=C(Nc1nnc(-c2ccc(F)cc2)o1)c1ccccc1F [AC10060, 2-fluoro-N-(5-(4-fluorophenyl)-1,3,4-oxadiazol-2-yl)benzamide] | 12 ± 4 |  | 13 ± 7 |  | 3 ± 6
O=C(Nc1nnc(-c2ccc3c(c2)CCCC3)o1)c1ccc(F)cc1 [AC10056, 4-fluoro-N-(5-(5,6,7,8-tetrahydronaphthalen-2-yl)-1,3,4-oxadiazol-2-yl)benzamide] | 98 ± 1 | 5.9 ± 1 | 74 ± 8 | 22 ± 4 | 
Cc1ccc(C(=O)Nc2nnc(C3CCCCC3)o2)cc1C(F)(F)F [AC10071, N-(5-cyclohexyl-1,3,4-oxadiazol-2-yl)-4-methyl-3-(trifluoromethyl)benzamide] | 100 ± 1 | 3.7 ± 1 | 83 ± 7 | 7 ± 1 | 
O=C(Nc1nnc(-c2ccc(F)cc2)o1)c1ccc(Br)cc1 [AC10008, 4-bromo-N-(5-(4-fluorophenyl)-1,3,4-oxadiazol-2-yl)benzamide] | 78 ± 3 | 10 ± 1 | 33 ± 3 | 71 ± 18 | 
Cc1ccc(C(=O)Nc2nnc(-c3ccc(F)cc3)o2)cc1C(F)(F)F [AC10067, N-(5-(4-fluorophenyl)-1,3,4-oxadiazol-2-yl)-4-methyl-3-(trifluoromethyl)benzamide] | 93 ± 5 | 4.6 ± 2 | 75 ± 12 | 9 ± 5 | 
O=C(Nc1nnc(-c2ccc(F)cc2)o1)c1ccc(S(=O)(=O)N2CCCCC2)cc1 [AC10036, N-(5-(4-fluorophenyl)-1,3,4-oxadiazol-2-yl)-4-(piperidin-1-ylsulfonyl)benzamide] | 83 ± 6 |  | 38 ± 7 | 39 ± 16 | 
O=C(Nc1nnc(C2CCCCC2)o1)c1ccc(Cl)cc1 [AC10055, 4-chloro-N-(5-cyclohexyl-1,3,4-oxadiazol-2-yl)benzamide] | 71 ± 5 | 13.5 ± 2 | 10 ± 12 |  | 
COc1ccc(C(=O)Nc2nnc(-c3ccc4c(c3)CCCC4)o2)cc1 [AC10041, 4-methoxy-N-(5-(5,6,7,8-tetrahydronaphthalen-2-yl)-1,3,4-oxadiazol-2-yl)benzamide] | 94 ± 2 | 6.4 ± 1 | 34 ± 11 | 46 ± 13 | 
CC(C)Oc1ccc(C(=O)Nc2nnc(-c3cccs3)o2)cc1 [AC10017, 4-isopropoxy-N-(5-(thiophen-2-yl)-1,3,4-oxadiazol-2-yl)benzamide] | 84 ± 5 | 10.7 ± 2 | 35 ± 4 | 83 ± 22 | 
O=C(Nc1nnc(C2CCCCC2)o1)c1cccc(-c2ccccc2)c1 [AC10063, N-(5-cyclohexyl-1,3,4-oxadiazol-2-yl)-[1,1′-biphenyl]-3-carboxamide] | 99 ± 1 | 1.4 ± 0.2 | 92 ± 1 | 1.4 ± 0.4 | 
Cc1ccc(C(=O)Nc2nnc(-c3ccc4c(c3)OCCO4)o2)cc1C [AC10035, N-(5-(2,3-dihydrobenzo[b][1,4]dioxin-6-yl)-1,3,4-oxadiazol-2-yl)-3,4-dimethylbenzamide] | 100 ± 1 | 5.3 ± 0.4 | 61 ± 1 | 14 ± 3 | 
O=C(Nc1nnc(-c2cccs2)o1)c1ccccc1 [AC10006, N-(5-(thiophen-2-yl)-1,3,4-oxadiazol-2-yl)benzamide] | 56 ± 5 | 29 ± 3 | 18 ± 2 | 101 ± 3 | 
Cc1ccc(C(=O)Nc2nnc(-c3ccc(F)cc3)o2)cc1C [AC10030, N-(5-(4-fluorophenyl)-1,3,4-oxadiazol-2-yl)-3,4-dimethylbenzamide] | 93 ± 4 | 6.5 ± 1 | 42 ± 4 | 46 ± 7 | 
CSc1cccc(C(=O)Nc2nnc(C3CCCCC3)o2)c1 [AC10011, N-(5-cyclohexyl-1,3,4-oxadiazol-2-yl)-3-(methylthio)benzamide] | 77 ± 8 | 6.6 ± 3 | 43 ± 6 | 61 ± 22 | 
CCc1ccc(C(=O)Nc2nnc(C3CCCCC3)o2)cc1 [AC10045, N-(5-cyclohexyl-1,3,4-oxadiazol-2-yl)-4-ethylbenzamide] | 91 ± 4 | 7.3 ± 3 | 44 ± 7 | 71 ± 14 | 
O=C(Nc1nnc(-c2ccc(F)cc2)o1)c1ccc(F)cc1 [AC10052, 4-fluoro-N-(5-(4-fluorophenyl)-1,3,4-oxadiazol-2-yl)benzamide] | 64 ± 1 | 17 ± 2 | 14 ± 3 |  | 
O=C(Nc1nnc(-c2ccc3c(c2)OCCO3)o1)c1ccccc1 [AC10001, N-(5-(2,3-dihydrobenzo[b][1,4]dioxin-6-yl)-1,3,4-oxadiazol-2-yl)benzamide] | 60 ± 3 | 31 ± 3 | 24 ± 7 | 102 ± 26 | 
Cc1cc(C(=O)Nc2nnc(C3CCCCC3)o2)cc(C(F)(F)F)c1 [AC10069, N-(5-cyclohexyl-1,3,4-oxadiazol-2-yl)-3-methyl-5-(trifluoromethyl)benzamide] | 96 ± 1 | 9.6 ± 1 | 83 ± 7 | 15 ± 2 | 
CC(C)Oc1ccc(C(=O)Nc2nnc(-c3ccc4c(c3)OCCO4)o2)cc1 [AC10037, N-(5-(2,3-dihydrobenzo[b][1,4]dioxin-6-yl)-1,3,4-oxadiazol-2-yl)-4-isopropoxybenzamide] | 88 ± 3 | 7.5 ± 0.7 | 39 ± 7 | 56 ± 23 | 
